Results taken from patent EP0766694B1 (ZAMBON GROUP S.p.A., priority 1994, dated 1995).
Where a name gives a salt, the structure may show the parent alone.

Columns and labels:
ACE = target: T1, ACE (Oryctolagus cuniculus, UniProt P12822); experiment: ACE-inhibitory activity (FAPGG hydrolysis, absorbance at 340 nm); type: biochemical; details: ACE purified by lung rabbit, FAPGG 0.8 mM, 37°C; compounds of formula I tested in the form of sodium salts
T1 construct: ACE (250 mU/ml purified by lung rabbit, EC 3.4.15.1 SIGMA); purchased SIGMA; host or cells: rabbit lung
T1 sequence (P12822 34-1310): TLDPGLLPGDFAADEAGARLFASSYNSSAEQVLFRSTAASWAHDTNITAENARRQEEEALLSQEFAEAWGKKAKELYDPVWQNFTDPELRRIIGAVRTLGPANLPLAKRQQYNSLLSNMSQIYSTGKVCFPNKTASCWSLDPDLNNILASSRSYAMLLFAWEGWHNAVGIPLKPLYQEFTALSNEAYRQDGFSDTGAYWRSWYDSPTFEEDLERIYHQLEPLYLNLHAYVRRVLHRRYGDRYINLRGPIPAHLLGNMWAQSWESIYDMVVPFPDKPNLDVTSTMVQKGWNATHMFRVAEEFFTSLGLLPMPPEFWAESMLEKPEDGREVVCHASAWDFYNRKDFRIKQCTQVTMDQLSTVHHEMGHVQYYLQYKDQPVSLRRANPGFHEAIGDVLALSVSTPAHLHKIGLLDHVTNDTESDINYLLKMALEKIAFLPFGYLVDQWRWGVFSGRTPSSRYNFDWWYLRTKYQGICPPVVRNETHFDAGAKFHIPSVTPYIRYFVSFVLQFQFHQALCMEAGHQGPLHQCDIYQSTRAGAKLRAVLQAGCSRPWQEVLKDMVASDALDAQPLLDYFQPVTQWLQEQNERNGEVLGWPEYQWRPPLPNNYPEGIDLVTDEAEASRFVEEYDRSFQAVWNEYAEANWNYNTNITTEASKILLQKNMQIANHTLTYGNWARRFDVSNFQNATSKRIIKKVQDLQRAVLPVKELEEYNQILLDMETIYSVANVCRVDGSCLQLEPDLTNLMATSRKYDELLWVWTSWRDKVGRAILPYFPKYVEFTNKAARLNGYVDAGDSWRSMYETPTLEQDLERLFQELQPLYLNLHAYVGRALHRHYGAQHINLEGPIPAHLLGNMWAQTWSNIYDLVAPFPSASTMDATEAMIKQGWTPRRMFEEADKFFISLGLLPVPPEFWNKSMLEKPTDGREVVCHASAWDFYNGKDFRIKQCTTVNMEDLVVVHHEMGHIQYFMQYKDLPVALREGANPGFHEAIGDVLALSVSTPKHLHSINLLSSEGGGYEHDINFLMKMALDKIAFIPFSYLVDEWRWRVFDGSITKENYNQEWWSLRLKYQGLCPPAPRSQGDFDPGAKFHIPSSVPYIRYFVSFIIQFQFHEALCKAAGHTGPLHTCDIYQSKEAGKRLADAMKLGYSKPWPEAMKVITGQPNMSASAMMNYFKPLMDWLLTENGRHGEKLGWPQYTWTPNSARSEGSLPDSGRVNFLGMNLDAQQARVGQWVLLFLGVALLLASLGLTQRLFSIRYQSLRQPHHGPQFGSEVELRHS
Description: […] of ACE (250 mU/ml purified by lung rabbit, EC 3.4.15.1 SIGMA) with 50 µl of the compound of formula I or of the reference compounds, were preincubated in thermostated cuvettes at 37°C for 5 minutes.
The reaction was started by adding furylacryloylphenylalanylglycylglycine 0.8 mM (FAPGG-SIGMA).
Contemporaneously, by using a Beckman DU-50 spectrophotometer provided with a program for calculating delta A/minutes and regression coefficients of the enzyme kinetics curves, the absorbance at 340 nm was recorded in continuo for 5 minutes.

NEP = target: T2, NEP (Rattus norvegicus, UniProt P07861); experiment: NEP-inhibitory activity (inhibition of [3H]Tyr-Gly-Gly formation from [3H][Leu5]-enkephaline in kidney cortex membranes)
T2 sequence (P07861 1-750): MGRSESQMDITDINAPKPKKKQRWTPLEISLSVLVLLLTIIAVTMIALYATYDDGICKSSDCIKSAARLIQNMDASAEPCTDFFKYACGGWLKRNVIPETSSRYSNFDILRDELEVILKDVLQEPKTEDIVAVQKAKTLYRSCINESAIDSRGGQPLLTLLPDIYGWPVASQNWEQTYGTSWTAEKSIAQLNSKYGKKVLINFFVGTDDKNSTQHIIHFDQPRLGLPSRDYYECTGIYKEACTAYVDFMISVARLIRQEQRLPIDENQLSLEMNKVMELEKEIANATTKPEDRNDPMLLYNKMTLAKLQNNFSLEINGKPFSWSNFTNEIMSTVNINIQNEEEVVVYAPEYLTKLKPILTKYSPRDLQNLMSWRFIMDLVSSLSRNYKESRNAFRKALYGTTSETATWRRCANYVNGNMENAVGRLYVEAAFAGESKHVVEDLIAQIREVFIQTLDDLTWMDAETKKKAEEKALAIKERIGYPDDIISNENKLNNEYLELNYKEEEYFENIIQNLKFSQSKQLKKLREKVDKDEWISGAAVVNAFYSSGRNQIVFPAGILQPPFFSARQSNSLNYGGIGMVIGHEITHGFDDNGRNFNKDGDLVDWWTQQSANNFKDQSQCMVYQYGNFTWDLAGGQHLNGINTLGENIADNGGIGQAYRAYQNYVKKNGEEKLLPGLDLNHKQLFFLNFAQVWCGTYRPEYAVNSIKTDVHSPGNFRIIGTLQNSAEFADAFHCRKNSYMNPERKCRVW

Row | Structure (SMILES) | IC50 (ACE) | IC50 (NEP) | NEP-inhibitory activity IC50 (nM) (NEP; membranes from rat kidney cortex, [3H][Leu5]-enkephaline 15 nM, 20 minutes at 30°C, compounds of formula I tested in the form of sodium salts)
1 | O=C(O)[C@H](Cc1ccc(-c2ccccc2)cc1)NC(=O)[C@H](Cc1cccs1)N[C@@H](CCc1ccccc1)C(=O)O [Compound 15] | 1.8 nM | 10 nM | –
2 | CC(C)[C@H](N[C@@H](CCc1ccccc1)C(=O)O)C(=O)N[C@@H](Cc1ccc(-c2ccccc2)cc1)C(=O)O [Compound 10] | 2 nM | 41 nM | –
3 | CC(C)C[C@H](N[C@@H](CCc1ccccc1)C(=O)O)C(=O)N[C@@H](Cc1ccc(-c2ccccc2)cc1)C(=O)O [Compound 1, N-[N'-[(1S)-1-carboxy-3-phenyl-propyl]-L-leucyl]-(1.1'-biphenyl-4-yl)-L-alanine disodium salt] | 1.5 nM | 27.7 nM | –
4 | CC(C)C[C@H](N[C@@H](CCC(=O)Nc1ccccc1)C(=O)O)C(=O)N[C@@H](Cc1ccc(-c2ccccc2)cc1)C(=O)O [Compound 17] | 2.2 nM | 27 nM | –
5 | C[C@H](CS)C(=O)N1CCC[C@H]1C(=O)O [Captopril, reference compound] | – | – | not active
6 | CC(C)C[C@H](N[C@@H](CC(=O)NCc1ccccc1)C(=O)O)C(=O)N[C@@H](Cc1ccc(-c2ccccc2)cc1)C(=O)O [Compound 20] | 15 nM | 53 nM | –
